Experimental data taken from patent publication US6586365B2, “Method for reducing pest damage to corn by treating transgenic corn seeds with clothianidin pesticide” (priority 2000, dated 2003).
Where two headings read alike, the source gives them in different places.

Test system: western and northern corn root worm
Assay type: in vivo, corn rootworm
Details: for PERCENT OF CONTROL (3-6 damage level) / PERCENT OF CONTROL (4-6 damage level) / PERCENT OF CONTROL (5-6 damage level) / PERCENT PLANTS HAVING 3-6 DAMAGE LEVEL / PERCENT PLANTS HAVING 4-6 DAMAGE LEVEL / PERCENT PLANTS HAVING 5-6 DAMAGE LEVEL: Iowa 1-6 Scale; for Corn root worm damage (Iowa 1-6 scale), means across locations / Corn root worm damage in each Iowa class (Iowa 1-6 scale): class 1 / Corn root worm damage in each Iowa class (Iowa 1-6 scale): class 2 / Corn root worm damage in each Iowa class (Iowa 1-6 scale): class 3 / Corn root worm damage in each Iowa class (Iowa 1-6 scale): class 4 / Corn root worm damage in each Iowa class (Iowa 1-6 scale): class 5 / Corn root worm damage in each Iowa class (Iowa 1-6 scale): class 6: stage VT-R1
Procedure: Corn seeds of the same hybrid species, with and without the transgenic event, were treated with clothianidin pesticide as follows. A seed treatment formulation was prepared by mixing a measured amount of clothianidin in water as a carrier and applying the formulation for one minute at room temperature to a measured weight of corn seed in a rotostatic seed treater. The respective weights of the pesticide preparation and the corn seed were calculated to provide the desired rate of treatment of pesticide on the seed. The pesticide was mixed into sufficient water to permit efficient distribution of the formulation to all of the seeds in the batch while minimizing loss of treatment formulation due to lack of uptake of the formulation by the seeds. Treated seeds were allowed to sit uncapped for at least four hours before planting.
A field trial was run in accordance with pertinent protocols and in conformance with USDA notification requirements. The purpose of the trial was to determine the efficacy of transgenic event Cry3Bb.11231 in corn seed in combination with corn rootworm seed treatments using clothianidin.
For each growing site that was selected, the plot design included the following:
The following seed treatment combinations were used for each growing area:
All seed treatments with pesticides were carried out as described in Example 1.
For seeds having treatments numbered 3 though 7, the pesticides were applied by the methods described in Example 1. In seed treatment number 8, commercially available Force® 3G was applied to the soil in a 5″ band at the time of sowing. The levels of application are as shown and are within the ranges recommended for standard commercial practice.
Corn seeds to be tested were planted and grown at five different locations across two Midwestern states in the United States corn belt according to the protocol described above.
The determination of damage by corn rootworm was made according to the following protocol. At stage VT-R1, an evaluation of corn rootworm damage was carried out by methods that are well known in the industry, and damage by corn rootworm was reported according to the Iowa 1-6 rating system. In that system, the root systems of 10 corn plants per plot are recovered and scored using the 1-6 rating scale, where: 1=no injury or only a few minor feeding scars, 2=feeding injury evident, but no roots eaten back to 1 ½ inches of the plant, 3=at least one root eaten off to within 1 ½ inches of the plant, but never an entire node of roots destroyed, 4=one node of roots eaten back to within 1 ½ inches of the plant, 5=two nodes (circles) of roots eaten back to within 1 ½ inches of the plant, 6=three nodes (circles) of roots eaten back to within 1 ½ inches of the plant.
The combinations of clothianidin seed treatment with corn seed having a Cry3Bb.11231 transgenic event were tested for possible synergy at three levels of rootworm damage. In the first test, shown in Table 2(a), the percentage of test plants having damage levels of from 3 to 6, on the Iowa 1-6 Scale, were determined for the control and for seeds treated with the pesticide at two levels, and for seeds having the transgenic event, alone and in combination. The following formula was then used to calculate a “synergy threshold”:
(% of control Cry3Bb.11231)*(% of control clothianidin treatment)/100.
This threshold was compared against the percent of control for the treatment combinations (i.e., Cry3Bb.11231 with clothianidin @ 100 gm/100 kg and Cry3Bb.11231 with clothianidin @ 300 gm/100 kg). If the treatment combination percent of control was below the threshold, then it was concluded that there was synergy.

[1] = clothianidin seed treatment @ 100 g/100 kg seed
[2] = clothianidin seed treatment @ 300 g/100 kg seed
[3] = clothianidin seed treatment @ 400 g/100 kg seed

CN/C(=N\[N+](=O)[O-])NCc1cnc(Cl)s1 [Clothianidin, N-[(2-chloro-5-thiazoyl)methyl]-N′-methyl-N″-nitro,[C(E)]-(9Cl)-guanidine]
PERCENT OF CONTROL (3-6 damage level) (clothianidin @ 100 gm/100 kg): 96.6%
PERCENT OF CONTROL (4-6 damage level) (clothianidin @ 100 gm/100 kg): 86.9%
PERCENT OF CONTROL (5-6 damage level) (clothianidin @ 100 gm/100 kg): 39.4%
PERCENT PLANTS HAVING 3-6 DAMAGE LEVEL (clothianidin @ 100 gm/100 kg): 96.6%
PERCENT PLANTS HAVING 4-6 DAMAGE LEVEL (clothianidin @ 100 gm/100 kg): 71.2%
PERCENT PLANTS HAVING 5-6 DAMAGE LEVEL (clothianidin @ 100 gm/100 kg): 15.8%
PERCENT OF CONTROL (3-6 damage level) (clothianidin @ 300 gm/100 kg): 91.5%
PERCENT OF CONTROL (4-6 damage level) (clothianidin @ 300 gm/100 kg): 50.65%
PERCENT OF CONTROL (5-6 damage level) (clothianidin @ 300 gm/100 kg): 23.9%
PERCENT PLANTS HAVING 3-6 DAMAGE LEVEL (clothianidin @ 300 gm/100 kg): 91.5%
PERCENT PLANTS HAVING 4-6 DAMAGE LEVEL (clothianidin @ 300 gm/100 kg): 41.5%
PERCENT PLANTS HAVING 5-6 DAMAGE LEVEL (clothianidin @ 300 gm/100 kg): 9.6%
Corn root worm damage (Iowa 1-6 scale), means across locations [1]: 3.9
Corn root worm damage in each Iowa class (Iowa 1-6 scale): class 1 [1]: 0
Corn root worm damage in each Iowa class (Iowa 1-6 scale): class 2 [1]: 6
Corn root worm damage in each Iowa class (Iowa 1-6 scale): class 3 [1]: 45
Corn root worm damage in each Iowa class (Iowa 1-6 scale): class 4 [1]: 98
Corn root worm damage in each Iowa class (Iowa 1-6 scale): class 5 [1]: 23
Corn root worm damage in each Iowa class (Iowa 1-6 scale): class 6 [1]: 5
Corn root worm damage (Iowa 1-6 scale), means across locations [2]: 3.4
Corn root worm damage in each Iowa class (Iowa 1-6 scale): class 1 [2]: 0
Corn root worm damage in each Iowa class (Iowa 1-6 scale): class 2 [2]: 16
Corn root worm damage in each Iowa class (Iowa 1-6 scale): class 3 [2]: 94
Corn root worm damage in each Iowa class (Iowa 1-6 scale): class 4 [2]: 60
Corn root worm damage in each Iowa class (Iowa 1-6 scale): class 5 [2]: 16
Corn root worm damage in each Iowa class (Iowa 1-6 scale): class 6 [2]: 2
Corn root worm damage (Iowa 1-6 scale), means across locations [3]: 3.0
Corn root worm damage in each Iowa class (Iowa 1-6 scale): class 1 [3]: 1
Corn root worm damage in each Iowa class (Iowa 1-6 scale): class 2 [3]: 34
Corn root worm damage in each Iowa class (Iowa 1-6 scale): class 3 [3]: 113
Corn root worm damage in each Iowa class (Iowa 1-6 scale): class 4 [3]: 37
Corn root worm damage in each Iowa class (Iowa 1-6 scale): class 5 [3]: 1
Corn root worm damage in each Iowa class (Iowa 1-6 scale): class 6 [3]: 0
effectiveness against corn rootworm damage (in words) (seed treatment alone, all levels tested (100, 300, 400 gm/100 kg)): effective against corn rootworm damage at all levels tested
